# From patent US20230389548A1, “MIXTURES OF PYRIMIDINES AS HERBICIDAL COMPOSITIONS” (SYNGENTA CROP PROTECTION AG, priority 2020, published 2023)
# Assays:
# Assay in all cases: Post-emergence glasshouse spray test, visual percentage phytotoxicity after 13 days
# Type in all cases: in vivo
# Stellaria media (STEME) = settings: for STEME percentage phytotoxicity: B1
# Procedure, shortened: (§1)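 8-day seedlings, pots, glasshouse 24/19 °C. Spray 500 l/Ha; 50 g/l IF50 formulation diluted in 0.2% Genapol XO80 to final dose. Grown 24/18 °C, 15 h light, 50% RH, watered twice daily; visual % phytotoxicity vs untreated at 13 d.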
# [1] = test system: Abutilon threophrasti (ABUTH); settings: B1
# Procedure, shortened: as §1
# Lolium perenne (LOLPE) = settings: for LOLPE percentage phytotoxicity: B1; for Observed phytotoxicity LOLPE: B2.3.4
# Procedure, shortened: as §1
# [2] = test system: Ipomoea hederacea (IPOHE); settings: for IPOHE percentage phytotoxicity: B1
# Procedure, shortened: as §1
# [3] = test system: Alopecurus myosuroides (ALOMY); settings: for ALOMY percentage phytotoxicity: B1
# Procedure, shortened: as §1
# [4] = test system: Echinochloa crus-galli (ECHCG); settings: for ECHCG percentage phytotoxicity: B1; for Observed phytotoxicity ECHCG: B2.3.2
# Procedure, shortened: as §1
# [5] = test system: Digitaria sanguinalis (DIGSA); settings: for DIGSA percentage phytotoxicity: B1
# Procedure, shortened: as §1
# [6] = test system: Chenopodium album (CHEAL); settings: B1
# Procedure, shortened: as §1
# Setaria faberi (SETFA) = settings: for SETFA percentage phytotoxicity: B1; for Observed phytotoxicity SETFA: B2.3.1
# Procedure, shortened: as §1
# [7] = test system: Amaranthus retroflexus (AMARE); settings: B1
# Procedure, shortened: as §1
smiles,measurement,setting,value
CCOC(=O)COc1ncccc1Oc1cc(-n2c(=O)cc(C(F)(F)F)n(C)c2=O)c(F)cc1Cl [B-V],STEME percentage phytotoxicity,Stellaria media (STEME); 0.31 g/ha post-emergence,25%
same,STEME percentage phytotoxicity,Stellaria media (STEME); 0.625 g/ha post-emergence,83%
same,STEME percentage phytotoxicity,Stellaria media (STEME); 1.25 g/ha post-emergence,83%
same,STEME percentage phytotoxicity,Stellaria media (STEME); 2.5 g/ha post-emergence,100%
same,STEME percentage phytotoxicity,Stellaria media (STEME); 5 g/ha post-emergence,100%
same,Observed phytotoxicity STEME,"Stellaria media (STEME); B2.3.7, 0.3125 g/ha post-emergence",25%
same,ABUTH percentage phytotoxicity,[1]; 0.31 g/ha post-emergence,97%
same,ABUTH percentage phytotoxicity,[1]; 0.625 g/ha post-emergence,98%
same,ABUTH percentage phytotoxicity,[1]; 1.25 g/ha post-emergence,100%
same,ABUTH percentage phytotoxicity,[1]; 2.5 g/ha post-emergence,100%
same,ABUTH percentage phytotoxicity,[1]; 5 g/ha post-emergence,100%
same,LOLPE percentage phytotoxicity,Lolium perenne (LOLPE); 0.31 g/ha post-emergence,2%
same,LOLPE percentage phytotoxicity,Lolium perenne (LOLPE); 0.625 g/ha post-emergence,0%
same,LOLPE percentage phytotoxicity,Lolium perenne (LOLPE); 1.25 g/ha post-emergence,8%
same,LOLPE percentage phytotoxicity,Lolium perenne (LOLPE); 2.5 g/ha post-emergence,15%
same,LOLPE percentage phytotoxicity,Lolium perenne (LOLPE); 5 g/ha post-emergence,25%
same,Observed phytotoxicity LOLPE,Lolium perenne (LOLPE); 1.25 g/ha post-emergence,8%
same,Observed phytotoxicity LOLPE,Lolium perenne (LOLPE); 2.5 g/ha post-emergence,15%
same,IPOHE percentage phytotoxicity,[2]; 0.31 g/ha post-emergence,58%
same,IPOHE percentage phytotoxicity,[2]; 0.625 g/ha post-emergence,70%
same,IPOHE percentage phytotoxicity,[2]; 1.25 g/ha post-emergence,100%
same,IPOHE percentage phytotoxicity,[2]; 2.5 g/ha post-emergence,100%
same,IPOHE percentage phytotoxicity,[2]; 5 g/ha post-emergence,100%
same,Observed phytotoxicity IPOHE,"[2]; B2.3.6, 0.3125 g/ha post-emergence",58%
same,ALOMY percentage phytotoxicity,[3]; 0.31 g/ha post-emergence,2%
same,ALOMY percentage phytotoxicity,[3]; 0.625 g/ha post-emergence,2%
same,ALOMY percentage phytotoxicity,[3]; 1.25 g/ha post-emergence,10%
same,ALOMY percentage phytotoxicity,[3]; 2.5 g/ha post-emergence,20%
same,ALOMY percentage phytotoxicity,[3]; 5 g/ha post-emergence,28%
same,Observed phytotoxicity ALOMY,"[3]; B2.3.5, 1.25 g/ha post-emergence",10%
same,ECHCG percentage phytotoxicity,[4]; 0.31 g/ha post-emergence,5%
same,ECHCG percentage phytotoxicity,[4]; 0.625 g/ha post-emergence,3%
same,ECHCG percentage phytotoxicity,[4]; 1.25 g/ha post-emergence,9%
same,ECHCG percentage phytotoxicity,[4]; 2.5 g/ha post-emergence,23%
same,ECHCG percentage phytotoxicity,[4]; 5 g/ha post-emergence,65%
same,Observed phytotoxicity ECHCG,[4]; 0.625 g/ha post-emergence,3%
same,Observed phytotoxicity ECHCG,[4]; 1.25 g/ha post-emergence,9%
same,Observed phytotoxicity ECHCG,[4]; 2.5 g/ha post-emergence,23%
same,DIGSA percentage phytotoxicity,[5]; 0.31 g/ha post-emergence,13%
same,DIGSA percentage phytotoxicity,[5]; 0.625 g/ha post-emergence,43%
same,DIGSA percentage phytotoxicity,[5]; 1.25 g/ha post-emergence,88%
same,DIGSA percentage phytotoxicity,[5]; 2.5 g/ha post-emergence,99%
same,DIGSA percentage phytotoxicity,[5]; 5 g/ha post-emergence,100%
same,Observed phytotoxicity DIGSA,"[5]; B2.3.3, 0.625 g/ha post-emergence",43%
same,CHEAL percentage phytotoxicity,[6]; 0.31 g/ha post-emergence,85%
same,CHEAL percentage phytotoxicity,[6]; 0.625 g/ha post-emergence,96%
same,CHEAL percentage phytotoxicity,[6]; 1.25 g/ha post-emergence,93%
same,CHEAL percentage phytotoxicity,[6]; 2.5 g/ha post-emergence,100%
same,CHEAL percentage phytotoxicity,[6]; 5 g/ha post-emergence,100%
same,SETFA percentage phytotoxicity,Setaria faberi (SETFA); 0.31 g/ha post-emergence,30%
same,SETFA percentage phytotoxicity,Setaria faberi (SETFA); 0.625 g/ha post-emergence,38%
same,SETFA percentage phytotoxicity,Setaria faberi (SETFA); 1.25 g/ha post-emergence,85%
same,SETFA percentage phytotoxicity,Setaria faberi (SETFA); 2.5 g/ha post-emergence,99%
same,SETFA percentage phytotoxicity,Setaria faberi (SETFA); 5 g/ha post-emergence,100%
same,Observed phytotoxicity SETFA,Setaria faberi (SETFA); 0.625 g/ha post-emergence,38%
same,Observed phytotoxicity SETFA,Setaria faberi (SETFA); 1.25 g/ha post-emergence,85%
same,AMARE percentage phytotoxicity,[7]; 0.31 g/ha post-emergence,98%
same,AMARE percentage phytotoxicity,[7]; 0.625 g/ha post-emergence,98%
same,AMARE percentage phytotoxicity,[7]; 1.25 g/ha post-emergence,100%
same,AMARE percentage phytotoxicity,[7]; 2.5 g/ha post-emergence,100%
same,AMARE percentage phytotoxicity,[7]; 5 g/ha post-emergence,100%
